Here are results for 9 compounds from PubChem BioAssay (NCI).

Some test systems named below: HOP-62 NSCLC; SF-295 CNS; MALME-3M melanoma; EKVX NSCLC; OVCAR-4 ovarian; UACC-257 melanoma; K-562 leukemia; NCI-H23 lung; SN12C renal; T-47D breast; UO-31 renal; SNB-19 CNS; MCF7 breast; RXF 393 renal; A498 renal; SK-OV-3 ovarian; NCI-H522 lung.
What all share (assay): DTP human tumour cell line panel, 48 h

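Tested at 5 concentrations; 48 h exposure; 96-well plates; endpoints linearly interpolated, else capped at highest concentration. TGI marks complete inhibition of growth.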 Where only a bound is given, the exact number is not on record here.

As to `CCCCNC(=S)/N=C/c1c(O)c2ccccc2[nH]c1=O`, the concentration for total growth inhibition (TGI) in the assay with HOP-62 NSCLC, in the assay on SF-295 CNS, in the assay on MALME-3M melanoma, with EKVX NSCLC, in the assay on OVCAR-4 ovarian and with UACC-257 melanoma was > 10 µM in each case. The TGI in the assay on K-562 leukemia, in the assay with NCI-H23 lung, in the assay with SN12C renal, in the assay on T-47D breast, in the assay on UO-31 renal and with SNB-19 CNS was > 10 µM each time. Moreover, the concentration for total growth inhibition (TGI) with MCF7 breast, in the assay on RXF 393 renal and with A498 renal was > 10 µM throughout.
On to `O=C(CSC1=NNC2(C(=O)N1)c1ccccc1-c1ccccc12)NC(=S)Nc1ccccc1`, for which the TGI in the assay on HOP-62 NSCLC, with SF-295 CNS, with MALME-3M melanoma, in the assay with EKVX NSCLC, with OVCAR-4 ovarian and with UACC-257 melanoma was > 10 µM throughout. The TGI in the assay with K-562 leukemia, in the assay with NCI-H23 lung, in the assay on SN12C renal, in the assay with T-47D breast, in the assay with SK-OV-3 ovarian and in the assay with NCI-H522 lung was > 10 µM throughout. The TGI in the assay on UO-31 renal, in the assay on SNB-19 CNS, in the assay on MCF7 breast and with RXF 393 renal was > 10 µM in each case.
`O=C1NC2(CCN(CCCC3(c4ccc(F)cc4)OCCO3)CC2)Oc2ccccc21`: the TGI in the assay with HOP-62 NSCLC, with SF-295 CNS, in the assay with MALME-3M melanoma, with EKVX NSCLC, in the assay on OVCAR-4 ovarian and in the assay with UACC-257 melanoma was > 100 µM each time. In addition, the TGI in the assay with K-562 leukemia, with NCI-H23 lung, with SN12C renal, with T-47D breast, with SK-OV-3 ovarian and in the assay on UO-31 renal was > 100 µM throughout. Moreover, the TGI in the assay on SNB-19 CNS is > 100 µM; with MCF7 breast it was > 100 µM; in the assay on RXF 393 renal, > 100 µM; in the assay with A498 renal it was 80.5 µM.
As to `CC1OC(OC2C(Oc3cc(O)c4c(c3)O[C@H](c3ccc(O)cc3)CC4=O)OC(CO)C(O)C2O)C(O)C(O)C1O` (stereo partly specified), the TGI in the assay on HOP-62 NSCLC, with SF-295 CNS, in the assay with MALME-3M melanoma, with EKVX NSCLC, with OVCAR-4 ovarian and in the assay on UACC-257 melanoma was > 100 µM in each case. For the same compound, the TGI in the assay with NCI-H23 lung, in the assay with SN12C renal, in the assay with T-47D breast, in the assay on SK-OV-3 ovarian, with NCI-H522 lung and in the assay with UO-31 renal was > 100 µM throughout. The TGI in the assay on MCF7 breast, in the assay on RXF 393 renal and in the assay with A498 renal was > 100 µM throughout.
For the compound `Cc1nc2c(=O)n3c4c(cccc4c2o1)CCC3`, the TGI in the assay on HOP-62 NSCLC, in the assay with SF-295 CNS, with MALME-3M melanoma, in the assay with EKVX NSCLC, in the assay on OVCAR-4 ovarian and in the assay on UACC-257 melanoma was > 100 µM each time. Moreover, the TGI with K-562 leukemia, in the assay on NCI-H23 lung, with SN12C renal, in the assay on T-47D breast, with SK-OV-3 ovarian and with UO-31 renal was > 100 µM in each case. Also, the TGI with SNB-19 CNS, in the assay with MCF7 breast, in the assay with RXF 393 renal and in the assay on A498 renal was > 100 µM throughout.
Take `CC#CC(O)(C(=O)OC1CC2CCC(C1)N2C)C1CCCC1` (stereo unspecified): the TGI in the assay with HOP-62 NSCLC, with SF-295 CNS, in the assay with EKVX NSCLC, in the assay on OVCAR-4 ovarian, in the assay with UACC-257 melanoma and in the assay on K-562 leukemia was > 100 µM in each case. For the same compound, the TGI with NCI-H23 lung, with SN12C renal, with T-47D breast, in the assay with SK-OV-3 ovarian, in the assay on UO-31 renal and in the assay on SNB-19 CNS was > 100 µM each time. The TGI with MCF7 breast, with RXF 393 renal and in the assay on A498 renal was > 100 µM throughout.
Regarding `COc1ccc(CCNC(=O)[C@H]2CCCC[C@@H]2CCO)cc1OC`, the TGI in the assay with HOP-62 NSCLC, in the assay with SF-295 CNS, with EKVX NSCLC, in the assay on OVCAR-4 ovarian, with UACC-257 melanoma and in the assay with K-562 leukemia was > 100 µM throughout. Also, the TGI with NCI-H23 lung, in the assay on SN12C renal, in the assay with T-47D breast, with SK-OV-3 ovarian, in the assay on NCI-H522 lung and in the assay on UO-31 renal was > 100 µM in each case. Also, the TGI with SNB-19 CNS, with MCF7 breast, in the assay on RXF 393 renal and in the assay with A498 renal was > 100 µM in each case.
As for `O=c1oc2ccc([N+](=O)[O-])cc2c(Nc2ccc3c(c2)S(=O)(=O)c2ccccc2O3)c1[N+](=O)[O-]`, the TGI with HOP-62 NSCLC, in the assay on SF-295 CNS, in the assay with MALME-3M melanoma, with EKVX NSCLC, in the assay on OVCAR-4 ovarian and in the assay with UACC-257 melanoma was > 100 µM in each case. The TGI with K-562 leukemia, in the assay on NCI-H23 lung, in the assay on SN12C renal, in the assay with T-47D breast, in the assay with SK-OV-3 ovarian and with NCI-H522 lung was > 100 µM in each case. In addition, the TGI in the assay with UO-31 renal, in the assay with SNB-19 CNS, in the assay with MCF7 breast and in the assay with RXF 393 renal was > 100 µM in each case.
Turning to `O=C1c2ccccc2-c2c1c(-c1cccc(Br)c1)nc1ccc3ccccc3c21`, the concentration for total growth inhibition (TGI) in the assay on HOP-62 NSCLC, in the assay on SF-295 CNS, in the assay on MALME-3M melanoma, with EKVX NSCLC, in the assay with OVCAR-4 ovarian and in the assay with UACC-257 melanoma was > 100 µM each time. Also, the TGI with K-562 leukemia, in the assay on NCI-H23 lung, with SN12C renal, in the assay with T-47D breast, in the assay on SK-OV-3 ovarian and in the assay with UO-31 renal was > 100 µM each time. Moreover, the TGI with SNB-19 CNS, with MCF7 breast, in the assay with RXF 393 renal and in the assay with A498 renal was > 100 µM each time.
